Tested on: Sil-15 cells containing a RARE driving a lacZ reporter
Assay: X-Gal-based RA reporter assay (genomic response)
Assay type: cell-based
From the text: Following chemical design and synthesis, the synthetic retinoid library was screened for genomic and nongenomic biological activities and compared to the response of the endogenous retinoid, ATRA. In these assays, the EC50 value represented the concentration of retinoid that gave half-maximal response (potency), while the E max value represented the maximum response achievable from the retinoid (efficacy).
The transcriptional genomic activity of the retinoids was quantified using Sil-15 cells containing a RARE driving a lacZ reporter. […] Twenty-two of the synthetic retinoids were effective in inducing genomic activity. […] In addition, the retinoids varied in their efficacies.
The Sil-15 cell line was used in the X-gal RA reporter assay described below. The cells were grown in Dulbecco’s modified Eagle’s medium (DMEM) containing 10% fetal bovine serum (FCS) (Invitrogen/Gibco), 0.6% penicillin-streptomycin (Gibco) and 0.8 mg/mL G418 sulfate (Sigma) for selection. They were maintained in a humidified atmosphere containing 5% CO2 at 37 °C. The medium was changed three times a week and the cells were passaged at 70% confluence using 0.05% trypsin-EDTA.
Sil-15 cells are F9 teratocarcinoma cells stably transfected with a plasmid containing the LacZ gene under the control of a DR5-type RA response element (RARE). The reporter cell line was used to detect the transcriptional genomic activity of ATRA and other retinoids by colorimetrically quantifying the insoluble blue product generated by β-galactosidase from X-gal during the assay. The assay was performed by plating 100,000 cells per well in the 0.1% gelatin-coated 96-well plates and leaving them to attach overnight. The ATRA/retinoids dilutions ranging from 10^–6 to 10^–14 M were incubated on the reporter cells overnight at 37 °C, in 5% CO2. A standard curve of ATRA was included in each experiment to ensure the reproducibility of the results between assays performed on different days. All the assays for ATRA as well as the retinoids were quantified in triplicate. Serial dilutions of retinoids were prepared from a stock solution under red/orange light. The stock solutions prepared in DMSO for each retinoid varied depending on the solubility of each compound. Each stock was stored at −20 °C and protected from light. The next day, Sil-15 cells were washed with PBS, fixed with 1% glutaraldehyde and 1 mM MgCl2 solution for 15 min, and developed in X-gal developing solution (0.2% X-Gal, 1 mM MgCl2, 3.3 mM potassium ferricyanide and 3.3 mM potassium ferrocyanide in PBS). The plates were read on an E max microplate reader (Molecular Devices) at 650 nm.
All data are presented as mean ± SEM of three independent experiments with biological triplicates. Statistical analyses were performed in Microsoft Office Excel 2019 or GraphPad Prism 7.0c version (Prism, GraphPad Software, San Diego, CA). Neurite outgrowth data were analyzed by one-way ANOVA with Newman-Keuls multiple comparison test as appropriate; P value <0.05 was considered statistically significant. *P < 0.05, **P < 0.01. Data for X-Gal and ERK1/2 phosphorylation were analyzed using sigmoidal dose–response analysis of log (agonist) versus response curve (stimulation).

genomic EC50 compared with ATRA (nonoverlapping 95% CI): significantly lower EC50 than ATRA
EC50 (read-out: genomic response EC50 (±95% CI), Sil-15 reporter cells, overnight, 10^–6 to 10^–14 M): 0.0155 nM
Structure (SMILES): Cc1sc(-c2ccc(C(=O)O)c(F)c2)nc1-c1cnc2c(n1)C(C)(C)CCC2(C)C [Compound 42, 2-Fluoro-4-[5-methyl-4-(5,5,8,8-tetramethyl-5,6,7,8-tetrahydroquinoxalin-2-yl)-1,3-thiazol-2-yl]benzoic Acid]
genomic E max compared with ATRA (nonoverlapping 95% CI): significantly higher E max than ATRA

— article PMC12163635, “Synthetic Retinoids for the Modulation of Genomic and Nongenomic Processes in Neurodegenerative Diseases” (ACS Omega, 2025)
